Experimental data taken from PMC7279038, “Antioxidant and Neuroprotective Effects Induced by Cannabidiol and Cannabigerol in Rat CTX-TNA2 Astrocytes and Isolated Cortexes” (International Journal of Molecular Sciences, 2020).

Legend:
[1] = test system: isolated rat cortexes, 5HIIA/5-HT ratio; assay: K+ 60 mM neurotoxicity paradigm, 5-HT turnover; details: CBD 1000 nM, CBG 1 nM
Method: Sprague–Dawley rats (200–250 g) were sacrificed by CO2 inhalation (Italian Health Ministry authorization N. F4738.N.XTQ, delivered on 11th November 2018) and isolated prefrontal cortex specimens were immediately explanted and incubated in thermostatic shaking bath at 37 °C for 1 h (incubation period), in Krebs–Ringer buffer at the following K^+ concentrations:
Cortexes were stimulated with CBD (1000 nM) and CBD (1 nM). Afterwards, specimens were homogenized in perchloric acid solution (0.05 M) for the extraction and quantification of nitrites, via the aforementioned colorimetric Griess assay, and serotonin (5-HT), 5-hydroxyindoleacetic (5HIIA),3-hydroxykinurenine (3-HK) and kinurenic acid (KA) (ng/mg wet tissue) via high performance liquid chromatography analysis. […]
Tissue 3-HK, 5-HT and 5HIIA levels were analyzed through an HPLC apparatus consisting of a Jasco (Tokyo, Japan) PU-2080 chromatographic pump and an ESA (Chelmsford, MA, USA) Coulochem III coulometric detector, equipped with a microdialysis cell (ESA-5014b), a porous graphite working electrode and a solid state palladium reference electrode. The analytical conditions for identification and quantification were selected according to previous studies. […] The chromatograms were monitored at the analytical detector 2. […] Sample concentrations were calculated by linear regression curve (y = bx + m) obtained with standard. […]

[2] = test system: CTX-TNA2 rat astrocyte cell line; assay: MTT assay; type: cell-based; details: for cell proliferation (MTT): basal conditions, 48 h, cannabidiol 1000 nM, cannabigerol 100 and 1000 nM; for protection from H2O2 cytotoxicity (MTT): cells challenged with 300 µM H2O2, CBD 1000 nM, CBG 1 nM
Method: (§1) The CTX-TNA2 rat astrocytes were purchased from the European Collection of Cell Cultures (ECACC), Sigma-Aldrich, Milan, Italy, and cultured as already indicated. Cells were grown in Dulbecco’s Modified Eagle Medium supplemented with 10% of FBS and penicillin–streptomycin (100 µgmL^−1) (all from EuroClone SpA Life-Sciences-Division, Milan, Italy) and maintained in a humified atmosphere of 5% CO2 at 37 °C. Cells were subcultivated at a ratio of 1.2 to 1.8 and the medium was changed every 3 days. CTX-TNA2 astrocytes were plated in 25 or 75 cm^2 flasks, according to experimental needing and cells between the eight and the 15 passage were used.
When indicated, the cells were treated with H2O2 300 µM for three hours and different concentrations of CBD (1–1000 nM) and CBG (1–1000 nM). The stock solutions were diluted in cell medium to the point that the concentration of DMSO in the samples was less than 0.0003%. Therefore, the addition of DMSO to the control samples was not necessary.
The 3 [4–dimethylthiazol-2yl]-2,5-diphenyl tetrazolium bromide (MTT) growth assay (Sigma-Aldrich S.r.l.) was used to assess cell proliferation as previously described. Briefly, The CTX-TNA2 cells were seeded into 96-well plate at 8 × 10^3 cells/well and treated as described above. After 24 and 48 h, a medium containing 0.5 mg/mL MTT was added to the cells, and the cells were incubated at 37 °C for 3 h. Following a further incubation of 30 min in DMSO, the absorbance at 570 nm was measured using a Multiscan GO microplate spectrophotometer (Thermo Fisher Scientific, Waltham, MA, USA).

[3] = Cupric reducing antioxidant capacity (CUPRAC); details: mean ± S.D., n = 3
Method: For the cupric ion reducing activity (CUPRAC) activity assay, sample solution was added to premixed reaction mixture containing CuCl2 (1 mL, 10 mM), neocuproine (1 mL, 7.5 mM) and NH4Ac buffer (1 mL, 1 M, pH 7.0). Similarly, a blank was prepared by adding sample solution (0.5 mL) to premixed reaction mixture […] without CuCl2. Then, the sample and blank absorbances were read at 450 nm after a 30 min incubation at room temperature. The absorbance of the blank was subtracted from that of the sample. CUPRAC activity was expressed as IC50 values.

[4] = test system: CTX-TNA2 astrocyte cell line; assay: ROS production by flow cytometry; type: cell-based, rat; details: challenged with 300 µM H2O2; 1000 nM CBD, 1 nM CBG; 24 and 48 h
Method: as §1
When indicated, the cells were treated with H2O2 300 µM for three hours and different concentrations of CBD (1–1000 nM) and CBG (1–1000 nM). […]
Reactive oxygen species (ROS) production was determined as already reported by monitoring by flow cytometry the increase in green fluorescence after labeling the cells (5 × 10^5) with 5 μmolL^−1 of 5-(and-6)-chloromethyl-2′,7′-dichlorodihydrofluorescein diacetate, acetyl ester (CM-H2DCFDA, Molecular Probes, Invitrogen, Life-Sciences-Division, Milano, Italy) for 40 min followed by 20 min of recovery at 37 °C. The increase in green fluorescence, indicating the production of ROS, was detected by a Cytoflex flow cytometer with an FL1 detector in a log mode (Beckmann Coulter, FL, USA). […]

Row | SMILES | effect on K+ 60 mM-induced increase in 5-HT turnover (5HIIA/5-HT ratio) [1] | cell proliferation (MTT) [2] | protection from H2O2 cytotoxicity (MTT) [2] | IC50 [3] | ROS production [4]
1 | C=C(C)[C@@H]1CCC(C)=C[C@H]1c1c(O)cc(CCCCC)cc1O [CBD, Cannabidiol] | able to prevent the 5-HT depletion | increase in cell proliferation | effective in protecting the cells from oxidative damage | 940 ± 10 µM | reduction in ROS production
2 | CCCCCc1cc(O)c(C/C=C(\C)CCC=C(C)C)c(O)c1 [CBG, cannabigerol] | able to prevent the 5-HT depletion | increase in cell proliferation | effective at the lowest concentration (1 nM) | 590 ± 10 µM | reduction in ROS production
